Measurements published in article PMC12298351, “Novel 3,19-(N-Phenyl-3-(4-fluorophenyl)-pyrazole) Acetal of Andrographolide Promotes Cell Cycle Arrest and Apoptosis in MDA-MB-231 Breast Cancer Cells” (Pharmaceuticals, 2025).

Tests used:
[1] = tested on: U251; details: U251, CNS
[2] = tested on: OVCAR-8; details: OVCAR-8, Ovarian
[3] = tested on: CCRF-CEM
[4] = tested on: RPMI-8226; details: RPMI-8226, Leukemia
[5] = tested on: SK-MEL-2; details: SK-MEL-2, Melanoma
[6] = tested on: NCI-H522
[7] = tested on: TK-10; assay type: cell-based; details: TK-10, Renal
[8] = DPPH radical scavenging assay; details: 25 µM test compound, 0.1 mM DPPH, acetonitrile, 30 min
Procedure: A stable free radical DPPH (2,2-Diphenyl-1-picrylhydrazyl) assay was employed to test the antioxidant activity of all the synthesized compounds. Concisely, 25 µM of the test compounds were dissolved in acetonitrile and combined with 0.1 mM of DPPH (in acetonitrile) in a 1:2 ratio (80 µL and 160 µL). Then, the mixture was left undisturbed in the dark for 30 min at room temperature. After 30 min, the absorbance of the solutions was instantly measured at 517 nm using a Varioskan Multiplate Reader (Thermo Fisher Scientific, Mumbai, India). Ascorbic acid (in acetonitrile) was used as the positive control, and andrographolide and isoandrogapholide (in acetonitrile) were used as the standards. The following equation was used to determine the DPPH radical scavenging activity:% Radical scavenging activity = (Ac − As)/Ac × 100 where Ac = the absorbance of the blank (DPPH solution), and As = the absorbance of the test samples

[9] = tested on: HCC-2998; details: HCC-2998, Colon
[10] = tested on: MDA-MB-435; details: MDA-MB-435, Melanoma
[11] = tested on: EKVX
[12] = tested on: M14; assay type: cell-based; details: M14, Melanoma
[13] = tested on: OVCAR-4; assay type: cell-based; details: OVCAR-4, Ovarian
[14] = tested on: NCI-H23
[15] = tested on: SF-295; details: SF-295, CNS
[16] = tested on: HOP-62
[17] = tested on: SF-539; details: SF-539, CNS
[18] = tested on: T-47D
[19] = tested on: UACC-62; details: UACC-62, Melanoma
[20] = tested on: SR
[21] = tested on: OVCAR-3; details: OVCAR-3, Ovarian
[22] = tested on: PC-3; details: PC-3, Prostate
[23] = tested on: HCT-15; details: HCT-15, Colon
[24] = tested on: A498; details: A498, Renal
[25] = tested on: HCT-116; assay type: cell-based; details: HCT-116, Colon
[26] = tested on: RXF 393; details: RXF 393, Renal
[27] = tested on: MOLT-4; details: MOLT-4, Leukemia
[28] = tested on: HL-60(TB)
[29] = read-out: 50% lethal concentration (LC50)
[30] = read-out: 50% lethal concentration (LC50), Leukemia

## C=C1CCC2C3(C)COC(c4cn(-c5ccccc5)nc4-c4ccc(F)cc4)OC3CCC2(C)C1CC=C1C(=O)OCC1O (stereo not shown) [1f, 3,19-(N-Phenyl-3-(4-fluorophenyl)-pyrazole) Acetal of Andrographolide]
[1]
  GI50: 2.36 µM
  Total growth inhibition (TGI): 5.63 µM
[2]
  GI50: 1.48 µM
  Total growth inhibition (TGI): 2.95 µM
[2]; [29]
  CC50: 5.86 µM
[3]; Leukemia
  GI50: 0.4 µM
[3]; [30]
  CC50: > 100 µM
[4]
  GI50: 0.49 µM
  Total growth inhibition (TGI): > 100 µM
[4]; [29]
  CC50: > 100 µM
[5]
  GI50: 1.69 µM
  Total growth inhibition (TGI): 3.1 µM
[6]; NCI-H522, Non-Small Cell Lung
  Total growth inhibition (TGI): 3.82 µM
[6]; NCI-H522, Non-Small-Cell Lung
  GI50: 1.95 µM
[6]; read-out: 50% lethal concentration (LC50), NCI-H522, Non-Small Cell Lung
  CC50: 7.48 µM
[7]
  GI50: 1.27 µM
  Total growth inhibition (TGI): 2.55 µM
[8]
  % DPPH radical scavenging activity: 58.15%
[9]
  GI50: 1.76 µM
  Total growth inhibition (TGI): 3.21 µM
[10]
  GI50: 1.68 µM
  Total growth inhibition (TGI): 3.27 µM
[10]; [29]
  CC50: 6.38 µM
[11]; Non-Small Cell Lung
  Total growth inhibition (TGI): 4.72 µM
[11]; Non-Small-Cell Lung
  GI50: 2.06 µM
[11]; read-out: 50% lethal concentration (LC50), Non-Small Cell Lung
  CC50: > 100 µM
[12]
  GI50: 1.5 µM
  Total growth inhibition (TGI): 3.23 µM
[13]
  GI50: 1.75 µM
  Total growth inhibition (TGI): 4.08 µM
[14]; NCI-H23, Non-Small Cell Lung
  Total growth inhibition (TGI): 3.32 µM
[14]; NCI-H23, Non-Small-Cell Lung
  GI50: 1.7 µM
[14]; read-out: 50% lethal concentration (LC50), NCI-H23, Non-Small Cell Lung
  CC50: 6.46 µM
[15]
  GI50: 1.55 µM
  Total growth inhibition (TGI): 2.92 µM
[15]; [29]
  CC50: 5.49 µM
[16]; HOP-62, Non-Small Cell Lung
  Total growth inhibition (TGI): 3.36 µM
[16]; HOP-62, Non-Small-Cell Lung
  GI50: 1.62 µM
[16]; read-out: 50% lethal concentration (LC50), HOP-62, Non-Small Cell Lung
  CC50: 6.95 µM
[17]
  GI50: 1.77 µM
  Total growth inhibition (TGI): 3.16 µM
[17]; [29]
  CC50: 5.65 µM
[18]; Breast
  GI50: 1.19 µM
  Total growth inhibition (TGI): 2.97 µM
[18]; read-out: 50% lethal concentration (LC50), Breast
  CC50: 7.44 µM
[19]
  GI50: 1.58 µM
  Total growth inhibition (TGI): 3.09 µM
[19]; [29]
  CC50: 6.05 µM
[20]; Leukemia
  GI50: 1.7 µM
  Total growth inhibition (TGI): 7.33 µM
[20]; [30]
  CC50: > 100 µM
[21]
  GI50: 2.02 µM
  Total growth inhibition (TGI): 3.71 µM
[21]; [29]
  CC50: 6.79 µM
[22]
  GI50: 1.55 µM
  Total growth inhibition (TGI): 4.04 µM
[22]; [29]
  CC50: > 100 µM
[23]
  GI50: 1.61 µM
  Total growth inhibition (TGI): 3.18 µM
[23]; [29]
  CC50: 6.28 µM
[24]
  GI50: 3.31 µM
  Total growth inhibition (TGI): 11.5 µM
[24]; [29]
  CC50: 38.3 µM
[25]
  GI50: 0.39 µM
  Total growth inhibition (TGI): 1.18 µM
[26]
  GI50: 1.6 µM
  Total growth inhibition (TGI): 3.04 µM
[26]; [29]
  CC50: 5.78 µM
[27]
  GI50: 0.6 µM
[27]; [29]
  CC50: > 100 µM
[28]; Leukemia
  GI50: 0.64 µM
  Total growth inhibition (TGI): 7.12 µM
[28]; [30]
  CC50: > 100 µM
